# Results published in patent US6881728B1, “14-β, 17-α-hydroxymethylandrostane derivatives as androgens” (Akzo Nobel N.V., priority 1999, dated 2005).
# Target: T1, human androgen receptor (Homo sapiens, UniProt P10275)
# T1 construct: host or cells: MCF-7 cytosol (endogenous) or CHO cells transfected with hAR
# T1 sequence (P10275 1-920): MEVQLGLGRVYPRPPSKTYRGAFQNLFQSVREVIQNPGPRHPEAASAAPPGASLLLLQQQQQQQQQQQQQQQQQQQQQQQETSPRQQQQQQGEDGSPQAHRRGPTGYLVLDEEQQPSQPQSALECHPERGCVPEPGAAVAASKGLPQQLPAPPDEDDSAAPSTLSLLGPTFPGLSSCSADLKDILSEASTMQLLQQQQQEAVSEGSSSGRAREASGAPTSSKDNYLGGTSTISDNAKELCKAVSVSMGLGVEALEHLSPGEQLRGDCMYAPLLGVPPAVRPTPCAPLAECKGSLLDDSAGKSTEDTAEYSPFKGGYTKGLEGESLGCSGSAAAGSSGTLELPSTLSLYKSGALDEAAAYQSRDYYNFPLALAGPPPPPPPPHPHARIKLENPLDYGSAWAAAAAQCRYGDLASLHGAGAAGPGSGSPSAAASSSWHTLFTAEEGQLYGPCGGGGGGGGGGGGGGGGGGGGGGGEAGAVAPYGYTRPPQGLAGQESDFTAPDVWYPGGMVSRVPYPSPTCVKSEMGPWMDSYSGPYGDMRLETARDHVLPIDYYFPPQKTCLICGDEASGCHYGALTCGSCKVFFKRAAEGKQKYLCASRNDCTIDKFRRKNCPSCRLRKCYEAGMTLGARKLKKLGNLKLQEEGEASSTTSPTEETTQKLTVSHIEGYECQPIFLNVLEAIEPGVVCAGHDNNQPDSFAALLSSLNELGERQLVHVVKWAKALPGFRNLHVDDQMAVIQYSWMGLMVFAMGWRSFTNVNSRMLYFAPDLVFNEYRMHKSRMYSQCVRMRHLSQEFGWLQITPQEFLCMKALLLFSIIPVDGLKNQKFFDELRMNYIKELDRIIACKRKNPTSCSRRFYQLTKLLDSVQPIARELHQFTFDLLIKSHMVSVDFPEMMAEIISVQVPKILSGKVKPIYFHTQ
# Test: androgenic activity rating (procedures described above; which one underlies the rating is not stated)
# Parameters: key: +: androgenic activity found; ++: high androgenic activity; +++: excellent androgenic activity
# Method: Androgenic activity can be measured in various ways. Thus, the potency of androgens can be determined in vitro using the cytoplasmic androgen receptor from human breast tumor cells (MCF-7 cell line); see Bergink, E. W. et al, Comparison of the receptor binding properties of nandrolone and testosterone under in vitro and in vivo conditions, J. Steroid Biochem. 22, 831-836 (1985). It is also possible to use Chinese hamster ovary (CHO) cells transfected with the human androgen receptor (incubation time 16 h, temperature 4° C.) and compared with the affinity of 5α-dihydrotestosterone [according to the procedure described by Bergink, E. W. et al, J. Steroid Biochem. 12, 1563-1570 (1983)]. The transactivative androgen activity of the compounds of the invention can be measured, e.g. in Chinese hamster ovary cells (CHO) transfected with the human androgen receptor (hAR), in combination with a mouse mammary tumor virus (MMTV), and luciferase […] (incubation time 16 h, temperature 37° C.) and compared with the activity of 5α-dihydrotestosterone [according to the procedure described by Schoonen, W. G. E. J. et al, Analyt. Biochem. 261, 222-224 (1998)]. For the in vivo potency determination of androgens the classical Hershberger test can be used. In this test the androgenic (increase in prostate weight) and anabolic activities [increase of the musculus levator ani (MLA)] of a compound are tested in immature castrated rats after daily administration for 7 days; see Hershberger, L. G. et al, Myotrophic activity of 19-Nortestosterone and other steroids determined by modified levator ani muscle method, Proceedings of the society for experimental biology and medicine 83, 175-180 (1953). Additionally, the effect of an androgenic compound on LH suppression can be tested in mature castrated rats according to Kumar, N. et al, The biological activity of 7alpha-methyl-19-nortestosterone is not amplified in male reproductive tract as is that of testosterone, Endocrinology 130, 3677-3683 (1992).
# A plurality of compounds according to the invention were tested for androgenic activity (the procedures for which have been described above) and rated in the Table below according to the following scheme: • + androgenic activity found; • ++ high androgenic activity; • +++ excellent androgenic activity; • nd no data available
row,SMILES,Rating (androgenic activity)
1,"CCCC[C@H]1CC[C@H](C(=O)OC[C@@H]2CC[C@@H]3[C@H]4[C@H](CC[C@]23C)[C@H]2CCC(=O)C=C2C[C@H]4C)CC1 (relative stereo) [Example 33d, (7α,14β,17α)-17-[[[(trans-4-Butylcyclohexyl)carbonyl]oxy]methyl]-7-methylestr-4-en-3-one]",+
2,"C[C@]12CC[C@@H]3C4=C(CC[C@H]3[C@H]1CC[C@H]2CO)CC(=O)CC4 [Example 2, (14β,17α)-17-(Hydroxymethyl)estr-5(10)-en-3-one]",++
3,"C[C@]12CCC3=C4CCC(=O)C=C4CC[C@H]3[C@H]1CC[C@H]2CO [Example 3, (14β,17α)-17-(Hydroxymethyl)estra-4,9-dien-3-one]",+
4,"C[C@@H]1CC2=CC(=O)CC[C@@H]2[C@H]2CC[C@]3(C)[C@H](CO)CC[C@@H]3[C@@H]21 [Example 4, (7α,14β,17α)-17-(Hydroxymethyl)-7-methylestr-4-en-3-one]",+++
5,"C[C@@H]1CC2=CC(=O)CC[C@@H]2[C@H]2CC[C@@]3(C)[C@H](C=C[C@H]3CO)[C@@H]21 [Example 5, (7α,14β,17α)-17-(hydroxymethyl)-7-methylestra-4,15-dien-3-one]",+++
6,"C[C@@H]1CC2=CC(=O)CC[C@@H]2[C@H]2CC[C@]3(C)[C@H](CO)CC[C@]3(C)[C@@H]21 [Example 6, (7α,14β,17α)-17-(Hydroxymethyl)-7,14-dimethylestr-4-en-3-one]",++
7,"C[C@@H]1CC2=CC(=O)CC[C@@H]2[C@H]2CC[C@]3(C)[C@H](CO)C[C@@H](C)[C@@H]3[C@@H]21 [Example 7, (7α,14β,15β,17α)-17-(Hydroxymethyl)-7,15-dimethylestr-4-en-3-one]",+
8,"C[C@@H]1CC2=CC(=O)CC[C@@H]2[C@H]2CC[C@@]3(C)[C@H](C[C@@H](C)[C@H]3CO)[C@@H]21 [Example 8, (7α,14β,16α,17α)-17-(Hydroxymethyl)-7,16-dimethylestr-4-en-3-one]",+
9,"C[C@@H]1CC2=CC(=O)CC[C@@H]2[C@H]2CC[C@@]3(C)[C@H](C[C@H](C)[C@H]3CO)[C@@H]21 [Example 9, (7α,14β,16β,17α)-17-(Hydroxymethyl)-7,16-dimethylestr-4-en-3-one]",++
10,"C[C@@H]1CC2=CC(=O)CC[C@@H]2[C@H]2CC[C@@]3(C)[C@H]([C@@H]4C[C@@H]4[C@H]3CO)[C@@H]21 [Example 10, (7α,14β,15β,16β,17α)-17-(Hydroxymethyl)-7-methyl-15,16-methyleneestr-4-en-3-one]",++
11,"CC1CC2=CC(=O)CCC2C2CCC3(C)C(CCC3(C)CO)C12 (stereo not drawn) [Example 11, (7α,14β,17α)-17-(Hydroxymethyl)-7,17-dimethylestr-4-en-3-one]",+
12,"C[C@@H]1CC2=CC(=O)CC[C@@H]2[C@H]2CC[C@@]3(C)[C@H](CC[C@]3(F)CO)[C@@H]21 [Example 12, (7α,14β,17α)-17-Fluoro-17-(hydroxymethyl)-7-methylestr-4-en-3-one]",+++
13,"C[C@@H]1CC2=CC(=O)CC[C@@H]2[C@H]2CC[C@@]3(C)[C@H](CC[C@@]3(O)CO)[C@@H]21 [Example 13, (7α,14β,17β)-17-Hydroxy-17-(hydroxymethyl)-7-methylestr-4-en-3-one]",+
14,"CC[C@@H]1CC2=CC(=O)CC[C@@H]2[C@H]2CC[C@]3(C)[C@H](CO)CC[C@@H]3[C@H]12 [Example 14, (7α,14β,17α)-7-Ethyl-17-(hydroxymethyl)estr-4-en-3-one]",+
15,"C=C[C@@H]1CC2=CC(=O)CC[C@@H]2[C@H]2CC[C@]3(C)[C@H](CO)CC[C@@H]3[C@@H]21 [Example 15, (7α,14β,17α)-7-Ethenyl-17-(hydroxymethyl)estr-4-en-3-one]",++
16,"CC(O)C1CCC2C3C(C)CC4=CC(=O)CCC4C3CCC12C [Example 16a, (7α,14β,17α,20S)-20-Hydroxy-7-methyl-19-norpregn-4-en-3-one]",++
17,"CC(O)C1CCC2C3C(C)CC4=CC(=O)CCC4C3CCC12C [Example 16b, (7α,14β,17α,20R)-20-Hydroxy-7-methyl-19-norpregn-4-en-3-one]",+
18,"CCC(O)[C@@H]1CC[C@@H]2[C@H]3[C@H](CC[C@@]21C)[C@H]1CCC(=O)C=C1C[C@H]3C (stereo partly drawn) [Example 17b, [7α,14β,17α(R)]-17-(1-Hydroxypropyl)-7-methylestr-4-en-3-one]",+
19,"C=CC(O)[C@@H]1CC[C@@H]2[C@H]3[C@H](CC[C@@]21C)[C@H]1CCC(=O)C=C1C[C@H]3C (stereo partly drawn) [Example 18a, [7α,14β,17α(S)]-17-(1-Hydroxy-2-propenyl)-7-methylestr-4-en-3-one]",+
20,"C#C[C@H](O)[C@@H]1CC[C@@H]2[C@H]3[C@H](CC[C@@]21C)[C@H]1CCC(=O)C=C1C[C@H]3C [Example 18c, [7α,14β,17α(R)]-17-(1-Hydroxy-2-propynyl)-7-methylestr-4-en-3-one]",+
21,"C#C[C@@H](O)[C@@H]1CC[C@@H]2[C@H]3[C@H](CC[C@@]21C)[C@H]1CCC(=O)C=C1C[C@H]3C [Example 18d, [7α,14β,17α(S)]-17-(1-Hydroxy-2-propynyl)-7-methylestr-4-en-3-one]",+
22,"C=CCC(O)C1CCC2C3C(C)CC4=CC(=O)CCC4C3CCC12C [Example 18g, (7α,14β,17α,20S)-20-Hydroxy-7-methyl-19,21-dinorchola-4,23-dien-3-one]",+
23,"C=CC[C@@H](O)[C@@H]1CC[C@@H]2[C@H]3[C@H](CC[C@@]21C)[C@H]1CCC(=O)C=C1C[C@H]3C [Example 18h, (7α,14β,17α,20R)-20-Hydroxy-7-methyl-19,21-dinorchola-4,23-dien-3-one]",+
24,"CC1CC2=CC(=O)CCC2C2CCC3(C)C(CCC3C(C)(C)O)C12 (stereo not drawn) [Example 19, (7α,14β,17α)-20-Hydroxy-7,20-dimethyl-19-norpregn-4-en-3-one]",+
25,"CC(O)C1C2CC2C2C3C(C)CC4=CC(=O)CCC4C3CCC12C [Example 20a, (7α,14β,15β,16β,17α,20S)-20-Hydroxy-7-methyl-15,16-methylene-19-norpregn-4-en-3-one]",++
26,"CC(O)C1C2CC2C2C3C(C)CC4=CC(=O)CCC4C3CCC12C [Example 20b, (7α,14β,15β,16β,17α,20R)-20-Hydroxy-7-methyl-15,16-methylene-19-norpregn-4-en-3-one]",+
27,"CC1CC2=CC(=O)CCC2C2CCC3(C)C(C4CC4C3C(C)(C)O)C12 (stereo not drawn) [Example 21, (7α,14β,15β,16β,17α)-20-Hydroxy-7,20-dimethyl-15,16-methylene-19-norpregn4-en-3-one]",+
28,"C[C@]12CC[C@H]3[C@@H](CCC4=CC(=O)CC[C@@]43C)[C@H]1CC[C@H]2CO [Example 22b, (14β,17α)-17-(Hydroxymethyl)androst-4-en-3-one]",+
29,"C[C@@H]1C[C@@H](CO)[C@@]2(C)CC[C@H]3[C@@H](CCC4=CC(=O)CC[C@@H]43)[C@@H]12 [Example 23, (14β,15β,17α)-17-(Hydroxymethyl)-15-methylestr-4-en-3-one]",+
